Source: EPA's ToxValDB 9.5

What was measured:
Rattus norvegicus [1] = conditions: oral
Canidae = conditions: for NOAEL / LOAEL: oral, diet
Rattus norvegicus [2] = conditions: for LD50: acute
Rattus norvegicus [3] = conditions: repeat dose other; oral
Rattus norvegicus [4] = conditions: for LOAEL: subchronic, Sprague-Dawley
Mus musculus [5] = conditions: developmental
Mus musculus [6] = conditions: developmental, M/F, developmental
Rattus norvegicus [7] = conditions: chronic, oral
Mus musculus [8] = conditions: reproduction developmental, oral, generation: P0
Rattus norvegicus [9] = conditions: developmental, oral, gavage, generation: F1
Rattus norvegicus [10] = conditions: oral, M/F
Rattus norvegicus [11] = conditions: oral; remark: listed apart in the source
Mus musculus [12] = conditions: chronic; duration: 80 weeks; dermal; (TO)
Rattus norvegicus [13] = conditions: subchronic; duration: 42 days; oral; gavage; CD(SD)
Oryctolagus sp. = conditions: acute; dermal
[14] = subchronic, duration: 90 days, Beagle
[15] = subchronic, liver and kidney pathology
[16] = developmental, increased retinal folds in weanlings, reduced viability and lactation indices, reduced pup body weight, increased dead pups at birth
[17] = developmental, gavage, M/F, Crl:CD(SD), During lactation periods f1 & f2: increased pup mortality, decreased pup viability & bodyweight, decreased lactation index, increased …
[18] = two-generation, gavage, M/F, Crl:CD(SD), During lactation periods f1 & f2: increased pup mortality, decreased pup viability & bodyweight, decreased lactation index, increased …
[19] = inhalation, M/F, delayed fetal ossification
[20] = reproduction developmental, duration: 15 days, oral, diet, Sprague-Dawley
[21] = chronic, body weight depression
[22] = subchronic, duration: 90 days, oral, diet
[23] = chronic, duration: 2 years, diet, M/F, Crl:CD(SD), reduced weight gain

O=C1[O][Sb-]23[O]C(=O)C([O]2)C2[O][Sb-]4([O]C(=O)C([O]4)C1[O]3)[O]C2=O.[K+].[K+]
LOAEL (Rattus norvegicus [1]; chronic, duration: 2 years, drinking water, M/F, Long-Evans, Whole Body Effects): 0.35 mg/kg-day

CC(C)(C)c1cc(Cn2c(=O)n(Cc3cc(C(C)(C)C)c(O)c(C(C)(C)C)c3)c(=O)n(Cc3cc(C(C)(C)C)c(O)c(C(C)(C)C)c3)c2=O)cc(C(C)(C)C)c1O
NOAEL (Canidae; [14]): 370 mg/kg-day | NOAEL (Canidae; subchronic, duration: 90 days, F, Beagle): 370 mg/kg-day | NOAEL (Canidae; subchronic, duration: 90 days, M, Beagle): 370 mg/kg-day | LD50 (Rattus norvegicus [2]; dermal): > 2000 mg/kg | LD50 (Rattus norvegicus [2]; dermal, Albino rats / Tif: RAI f (SPF)): > 2000 mg/kg | LD50 (Rattus norvegicus [2]; oral, gavage, Tif : Raif (SPF), F3 - hybrid of RII 1/ Tif x RII 2/ Tif): > 5000 mg/kg | NOAEL (Rattus norvegicus [2]; chronic, duration: 92 days, oral, diet, F, Tif: RAIf (SPF), hybrids of RII/1 x RII/2): 62.4 mg/kg-day | NOAEL (Rattus norvegicus [2]; chronic, duration: 92 days, oral, diet, M, Tif: RAIf (SPF), hybrids of RII/1 x RII/2): 234 mg/kg-day | NOAEC (Rattus norvegicus [2]; subchronic, duration: 90 days, oral, diet, Albino Rats / Charles River strain): 960 mg/kg-day

Clc1cc2c(oc3cc(Cl)c(Cl)c(Cl)c32)c(Cl)c1Cl [1,2,3,6,7,8-Hexachlorodibenzofuran]
LOAEL (Rattus norvegicus [3]): 0.0016 mg/kg-day | NOAEL (Rattus norvegicus [3]): 0.00016 mg/kg-day

CC(O)CO (stereo not given) [1,2-Propylene glycol]
LOAEL (Rattus norvegicus [1]; subchronic, duration: 5 weeks, drinking water, M, Wistar, Hematologic): 5200 mg/kg-day | LOAEL (Rattus norvegicus [4]; duration: 13 weeks, inhalation, nose only, M/F, respiratory): 159 mg/m3

Brc1c(Br)c(Br)c(Oc2c(Br)c(Br)c(Br)c(Br)c2Br)c(Br)c1Br [2,2',3,3',4,4',5,5',6,6'-Decabromodiphenyl ether]
LOAEL (Mus musculus [5]; oral, gavage, M, neurobehavioral effects): 20.1 mg/kg-day | NOAEL (Mus musculus [5]; oral, gavage, neurobehavioral effects): 2.22 mg/kg-day | NOAEL (Mus musculus [6]; duration: 1 days, oral, gavage, NMRI): 1.34 mg/kg-day | LOAEL (Rattus norvegicus [4]; duration: 8 weeks, oral, gavage, M, endocrine): 0.05 mg/kg-day | NOEL (Rattus norvegicus [7]; duration: 2 years, diet, Liver: Increased weight): 1 mg/kg-day | LOEL (Mus musculus [8]; M/F, C57BL/6, P0: Operant test (fixed interval schedule, index of curvature, last block) + P0: Operant test (fixed interval schedule, index of curvature, …): 6 mg/kg-day | LOEL (Mus musculus [8]; M/F, C57BL/6, P0: Operant test (fixed interval schedule, overall response rate, first block) + P0: Operant test (fixed interval schedule, overall response…): 20 mg/kg-day | LOEL (Mus musculus [8]; M, Apoe3, P0: Morris water maze (swim distance in target quadrant)): 10 mg/kg-day | LOEL (Mus musculus [8]; M, Swiss Albino, P0: Morris water maze (latency, last trial) + P0: Morris water maze (latency, significant trial) + P0: Morris water maze (time spent in …): 20 mg/kg-day | LOEL (Rattus norvegicus [9]; M/F, Crl:CD(SD), F1: Water T maze (learning error)): 1000 mg/kg-day | LOEL (Rattus norvegicus [9]; M, Sprague-Dawley, F1: Morris water maze (latency, last trial) + F1: Morris water maze (latency, significant trial)): 30 mg/kg-day

Oc1cc(Cl)c(Cl)cc1Cl [2,4,5-Trichlorophenol]
LOAEL (Rattus norvegicus [10]; [15]): 300 mg/kg-day | NOEL (Rattus norvegicus [10]; [15]): 100 mg/kg-day | NOAEL (Rattus norvegicus [1]; chronic, duration: 98 days, diet, M/F, Wistar, Hepatic, Urinary): 100 mg/kg-day | NOAEL (Rattus norvegicus [4]; chronic, duration: 98 days, oral, diet, M/F, Wistar, hepatic, renal): 100 mg/kg-day

OCCCl [2-Chloroethanol]
NOAEL (Rattus norvegicus [1]; chronic, duration: 18 weeks, diet, M/F, FDRL, Whole Body Effects): 45 mg/kg-day

Cc1ccccc1N [2-Methylaniline]
LOAEL (Rattus norvegicus [1]; subchronic, duration: 13 weeks, diet, M, Fischer 344): 301 mg/kg-day

OCC(O)CCl (stereo not given) [3-Chloro-1,2-propanediol]
LOEL (Rattus norvegicus [11]; chronic, drinking water, Fischer 344, Kidney proximule tubule hyperplasia): 1.1 mg/kg-day

O=C(c1ccc(Cl)cc1)c1ccc(Cl)cc1 [4,4'-Dichlorobenzophenone]
NOAEL (Rattus norvegicus [1]; subchronic, duration: 90 days, diet, M, Wistar): 86 mg/kg-day

CCCCCCCCCCCCCCCCCC(=O)OC[C@@H](O)[C@H]1OC[C@H](O)[C@H]1O [Anhydrosorbitol stearate]
NOAEL (% diet) (Canidae; chronic, duration: 20 months, dermal, Dog Other): 5 | LOAEL (Canidae; chronic, duration: 21 months, Mongrel or Irish terrier): 485 mg/kg-day | NOAEL (% diet) (Mus musculus [12]): 0.5 | LD50 (Rattus norvegicus [2]; oral, gavage, Wistar): > 15900 mg/kg | NOAEL (% diet) (Rattus norvegicus [2]; reproduction developmental, duration: 2 years, oral, diet): 5 | NOEL (Rattus norvegicus [13]): 1000 mg/kg-day

CC[C@H](C)[C@H]1O[C@]2(C=C[C@@H]1C)C[C@@H]1C[C@@H](C/C=C(\C)[C@@H](O[C@H]3C[C@H](OC)[C@@H](O[C@H]4C[C@H](OC)[C@@H](O)[C@H](C)O4)[C@H](C)O3)[C@@H](C)/C=C/C=C3\CO[C@@H]4[C@H](O)C(C)=C[C@@H](C(=O)O1)[C@]34O)O2 [Avermectin B1a]
LEL (Rattus norvegicus [10]; [16]): 0.4 mg/kg-day | NOEL (Rattus norvegicus [10]; [16]): 0.12 mg/kg-day | LOAEL (Rattus norvegicus [11]; [17]): 0.4 mg/kg-day | NOAEL (Rattus norvegicus [11]; [17]): 0.12 mg/kg-day | LOAEL (Rattus norvegicus [11]; [18]): 0.4 mg/kg-day | NOAEL (Rattus norvegicus [11]; [18]): 0.12 mg/kg-day

[Ba+2].[Cl-].[Cl-] [Barium chloride]
NOAEL (Rattus norvegicus [3]): 5.1 mg/kg-day

ClCCOCOCCCl [Bis(2-chloroethoxy)methane]
NOAEL (Rattus norvegicus [1]; subchronic, duration: 90 days, gavage, M/F, Sprague-Dawley, hepatic): 10 mg/kg-day

CCCl [Chloroethane]
LOAEL (Mus musculus [5]; [19]): 13000 mg/m3 | NOAEL (Mus musculus [5]; [19]): 4000 mg/m3 | NOAEL (Rattus norvegicus [1]; short-term, duration: 14 days, drinking water, F, Fischer 344, Whole Body Effects): 361 mg/kg-day | NOAEL (Mus musculus [6]; duration: 9 days, inhalation, CF1): 3970 mg/m3

[Cr+6] [Chromium (VI) ion]
LOAEL (Rattus norvegicus [3]): 13.1 mg/kg-day | NOAEL (Rattus norvegicus [3]): 3.28 mg/kg-day | NOAEL (Rattus norvegicus [10]; chronic, duration: 1 years, drinking water, no effects): 25 mg/L | NOAEL (Rattus norvegicus [7]; duration: 1 years, drinking water, None Observed): 2.4 mg/kg-day

Cc1cc(C(C)(C)C)c(O)c(C)c1Cn1c(=O)n(Cc2c(C)cc(C(C)(C)C)c(O)c2C)c(=O)n(Cc2c(C)cc(C(C)(C)C)c(O)c2C)c1=O [Cyanox CY 1790]
NOAEL (Canidae; subchronic, duration: 13 weeks, Beagle): 46 mg/kg-day | NOAEL (Canidae; subchronic, duration: 30 days, Beagle): 400 mg/kg-day | NOAEL (Canidae; [14]): 30 mg/kg-day | LD50 (Oryctolagus sp.): > 5000 mg/kg | LD50 (Rattus norvegicus [2]; oral, Wistar): > 10000 mg/kg | LOAEL (Rattus norvegicus [2]; [20]): 10000 ppm | NOAEL (Rattus norvegicus [2]; [20]): 1000 ppm | NOAEL (Rattus norvegicus [2]; reproduction developmental, oral, diet, Sprague-Dawley, generation: F0): 1000 ppm | NOAEL (Rattus norvegicus [2]; reproduction developmental, oral, diet, Sprague-Dawley, generation: F1): 20000 ppm | NOAEL (Rattus norvegicus [2]; subchronic, duration: 90 days, oral, diet, Sprague-Dawley): 400 mg/kg-day

O=C1CCCCC1 [Cyclohexanone]
LOAEL (Rattus norvegicus [10]; [21]): 910 mg/kg-day | NOAEL (Rattus norvegicus [10]; [21]): 462 mg/kg-day | NOAEL (Rattus norvegicus [1]; chronic, duration: 25 weeks, drinking water, M, Fischer 344, Whole Body Effects): 731 mg/kg-day

C[C@@H]1C[C@H]2[C@@H]3CCC4=CC(=O)C=C[C@]4(C)[C@@]3(F)[C@@H](O)C[C@]2(C)[C@@]1(O)C(=O)CO [Dexamethasone]
NOEL (Rattus norvegicus [11]; short-term, gavage, Induction of hepatic tyrosine aminotransferase activity): 0.0015 mg/kg-day

C=CC[N+](C)(C)CC=C.[Cl-] [Diallyldimethylammonium chloride]
LOAEL (Canidae; [14]): 800 mg/kg-day | NOAEL (Canidae; [14]): 200 mg/kg-day | LD50 (Rattus norvegicus [2]; oral, gavage, Sprague-Dawley): 2520 mg/kg | LD50 (Rattus norvegicus [2]; oral, gavage, Wistar): 3930 mg/kg | NOAEL (Rattus norvegicus [2]; developmental, duration: 9 days, oral, gavage, Sprague-Dawley): 6 mg/kg-day | NOAEL (Rattus norvegicus [2]; reproduction developmental, duration: 9 days, oral, gavage, F, Sprague-Dawley): 6 mg/kg-day | NOAEL (Rattus norvegicus [2]; reproduction developmental, duration: 133 days, oral, gavage, Sprague-Dawley, generation: F0): 1.25 mg/kg-day | NOAEL (Rattus norvegicus [2]; reproduction developmental, duration: 133 days, oral, gavage, Sprague-Dawley, generation: F1): 1.25 mg/kg-day | NOAEL (Rattus norvegicus [2]; reproduction developmental, duration: 133 days, oral, gavage, Sprague-Dawley, generation: F2): 1.25 mg/kg-day | LOAEL (Rattus norvegicus [2]; [22]): 500 mg/kg-day | NOAEL (Rattus norvegicus [2]; [22]): 50 mg/kg-day

CN[C@@H]1[C@H](O[C@H]2[C@H](O[C@H]3[C@H](O)[C@@H](O)[C@H](N=C(N)N)[C@@H](O)[C@@H]3N=C(N)N)O[C@@H](C)[C@]2(O)CO)O[C@@H](CO)[C@H](O)[C@H]1O [Dihydrostreptomycin]
LOEL (Rattus norvegicus [11]; [23]): 10 mg/kg-day | NOEL (Rattus norvegicus [11]; [23]): 5 mg/kg-day

COC(=O)c1ccccc1C(=O)OC [Dimethyl phthalate]
LD50 (Rattus norvegicus [2]; oral): 6900 mg/kg | NOAEL (Rattus norvegicus [2]; developmental, duration: 10 days, oral, diet, Sprague-Dawley): > 3570 mg/kg-day | NOAEL (Rattus norvegicus [2]; reproduction developmental, duration: 10 days, oral, diet, F, Sprague-Dawley): 840 mg/kg-day | LOAEL (Rattus norvegicus [1]; short-term, duration: 1 weeks, diet, M, Wistar): 302 mg/kg-day

CC[n+]1c(-c2ccccc2)c2cc(N=NNc3cccc(C(=N)N)c3)ccc2c2ccc(N)cc21 [Isometamidium]
NOAEL (Rattus norvegicus [11]; subchronic, duration: 13 weeks, gavage, M/F, Crl:CD(SD) BR): 50 mg/kg-day

O=C(NC(=O)c1c(F)cccc1F)Nc1cc(Cl)c(OC(F)(F)C(F)C(F)(F)F)cc1Cl (stereo not given) [Lufenuron]
NOAEL (Rattus norvegicus [11]; chronic, duration: 2 years, Tonic-clonic seizures, histopathological effects on lungs, liver, non-glandular stomach, intestines and urinary tract.): 1.93 mg/kg-day

[Lu] [Lutetium]
NOAEL (Rattus norvegicus [1]; subchronic, duration: 90 days, diet, M/F, CRW): 504 mg/kg-day

CO[C@H]1C[C@H](O[C@@H]2/C(C)=C/C[C@@H]3C[C@@H](C[C@]4(CC[C@H](C)[C@@H](C5CCCCC5)O4)O3)OC(=O)[C@@H]3C=C(C)/C(=N/O)[C@H]4OC/C(=C\C=C\[C@@H]2C)[C@]43O)O[C@@H](C)[C@@H]1O [Selamectin]
NOAEL (Rattus norvegicus [11]; chronic, duration: 1 years, Increased liver and uterus/cervix weights): 5 mg/kg-day
